From patent publication US8669232B2, “Flavonol compounds, a bioactive extract/fraction from Ulmus wallichiana and its compounds for prevention for treatment of osteo-health related disorders” (Council of Scientific & Industrial Research, priority 2008, dated 2014)

Legend:
[1] = system: calvarial osteoblasts; test: Alkaline phosphatase activity assay in calvarial osteoblasts; format: cell-based, neonatal Sprague-Dawley rats
Procedure: (§1) Neonatal rat calvarial cell cultures are prepared as described previously (Chattopadhyay et al., Endocrinology 145:3451-62, 2004) using slight modification. Briefly, for calvarial osteoblast cultures, frontal and parietal bones from neonatal Sprague-Dawley rats (1-3 day old) were digested in 0.1% collagenase/0.1% dispase in α-MEM to obtain 5 sequential digests. The second through fifth digests are combined and grown to confluence at 37° C. and 5% CO2 in air in α-MEM, supplemented with 10% fetal bovine serum (FBS), 2 mM glutamine, 100 U/ml penicillin-streptomycin, non-essential amino acid solution and sodium pyruvate.
For alkaline phosphatase (ALP) assay, osteoblasts were plated in 96-well (2000 cells/well) plates in regular growth medium. Twenty-four hours later, when the cells formed a confluent monolayer, medium was replaced with α-MEM medium supplemented with 10% FBS, 10 mM β-glycerophosphate and 50 μg/ml ascorbic acid. Treatment was given with varying concentration of the test compound K012, K058, K068 and K100 at 1 nM and 100 nM concentration. Forty-eight hours after induction, ALP activity of the osteoblasts was determined as described by Akiyama et al (Exp Cell Res 235:362-369, 1997) with slight modifications. Briefly, cells were washed once with PBS and ALP activity was measured by adding ALP buffer (1 M diethanolamine, 0.5 mM MgCl2, 1 mg/ml PNPP, pH 9.0), incubating in 37° C., and absorbance (405 nm) was measured using a microplate spectrophotometer. Statistical significance was determined by paired two-tailed Student's t-tests.

[2] = system: Bone marrow cells (BMCs); test: In vitro mineralization from mouse bone marrow; format: cell-based, balb/c mice; details: 1 nM and 100 nM, 21 days
Text: Adult balb/c mice were used in this study. Bone marrow cells (BMCs) were harvested from the femurs and tibias of the animals, as described elsewhere (Maniatopoulos et al. Cell Tissue Res 1988:254:317-30.; Ishaug et al., J Biomed Mater Res 1997; 36:17-28.). Briefly, bones were aseptically excised from the hind limbs of the mice following ether euthanasia. The soft tissue was removed, and the proximal end of the femur and distal end of the tibia were clipped off using sterile scissors, a hole was created in the knee joint end of each bone with an needle, and the marrow was flushed from the shaft with control medium (CM) which consisted of α-MEM supplemented with 10% fetal calf serum, 100 U/ml penicillin, 100 U/ml streptomycin (Sigma, Chemical Co., St. Louis, Mo., USA). The cells were suspended in this medium, and the cell suspensions from all bones were combined in a centrifuge tube. The suspension was spun down at 800 rpm for 5 min. Cells were counted by using a haemocytometer. The supernatant was aspirated, and the pellet was re-suspended in fresh CM and then seeded into 12-well plates. 200000 cells/well were cultured in 12-well plates and in a humidified atmosphere, with 5% CO2, at 37° C. in the same medium supplemented with 10 mM-β-glycerophosphate, 50 μg/ml L-ascorbic acid and 10^−8M dexamethasone with different concentration of the test compound. This medium was replaced every other day (John et al. Trends. Biomater. Artif. Organs 2002:16(1):28-33.; Connolly. Clin Orthop 1995:313: 8-18.; Gebhart and Lane. Acta Orthop Belg 1991:57(2):130-43.; Gurpinar et al. J Biomater Appl 2003; 18(1):25-33; Lan and Wang, Blood Substitutes. Biotechnol 2003; 31(1):59-68.). Treatments K012, K058, K068 and K0100 at 1 nM and 100 nM concentration were given for 21 days and after completion of the treatment samples were rinsed with PBS followed by fixation (4% HCHO for […]). Samples were then rinsed with nanopure water and stained for 10 min with 40 mM AR-S, pH 4.2, at room temperature. Photomicrographs of the stained wells were taken. Subsequently, alizarin red-S stain was extracted using 10% (w/v) CPC in […] sodium phosphate, pH 7.0, for […] at room temperature, and the resulting solutions were read on a Microplate reader with a test wavelength of 540 nm against a reference wavelength of 620 nm.

[3] = system: calvarial osteoblasts; test: In vitro mineralization of calvarial osteoblasts (alizarin red-S, von kossa); format: cell-based, neonatal Sprague-Dawley rats; details: for Von kossa staining (mineralized nodules) compared with controls (vehicle): 21 days culture
Procedure: as §1
Ability of cells to produce mineralized matrix is important with regard to development of materials for bone regeneration. Mineralization of extracellular matrix by osteoblasts was determined using alizarin red-S (AR-S) assay combined with cetylpyridinium chloride (CPC) extraction. (Stanford et al, J. Biol. Chem. 270:9420-9428; 1995.) Alizarin red is a dye that binds selectively to nascent calcium salts and is widely used for calcium mineral histochemistry. Cells were seeded onto a six well plate containing 10000 cells/well in culture medium supplemented with 10 mM β-glycerophosphate and 50 μg/ml ascorbic acid with test compounds K012, K058, K068 and K0100 at 1 nM and 100 nM concentration. Treatment was given for 21 days and after completion of the treatment samples were rinsed with PBS followed by fixation (4% HCHO for 20 min). Photomicrographs of the stained wells were taken. Subsequently, alizarin red-S stain was extracted using 10% (w/v) cetylpyridinium chloride (CPC) in […] sodium phosphate, pH 7.0, for 15 min at room temperature, and the resulting solutions were read on a Microplate reader with a test wavelength of 540 nm against a reference wavelength of 620 nm. Mineralization nodules were also seen by Von kossa staining procedure (A. M. Chou et al. Materials Science and Engineering C 20 (2002) 77-83.) After 21 days culture, cells in tissue culture wells were washed with PBS and immersed in 5% (w/v) silver nitrate solution for 45 min. After rinsing with distilled water, they were fixed in 5% (w/v) sodium bicarbonate formalin for 8 min. Finally, they were immersed in 5% (w/v) sodium thiosulphate solution for 5 min and washed thoroughly with water for 15 min and photomicrographs were taken.

| osteoblast differentiation (summary of in vitro effects) [1] | Structure (SMILES) | mineralization of bone marrow osteoblasts (alizarin red staining) [2] | osteoblast mineralization (summary of in vitro effects) [3] | Von kossa staining (mineralized nodules) compared with controls (vehicle) [3] |
| --- | --- | --- | --- | --- |
| promoted | O=C1c2c(cc(O)c([C@@H]3OC(CO)[C@@H](O)[C@H](O)C3O)c2O)O[C@@H](c2ccc(O)c(O)c2)[C@@H]1O (stereo partly drawn) [K058, (2S,3S)-(+)-3′,4′,5,7-tetrahydroxydihydroflavonol-6-C-β-D-glucopyranoside] | stimulated | promoted | increased |
| promoted | O=c1c(O)c(-c2ccc(O)c(O)c2)oc2cc(O)c(C3O[C@H](CO)[C@@H](O)[C@H](O)[C@H]3O)c(O)c12 (some centres unmarked) [K012, 6-Glucopyranosyl-3,3′,4′,5,7-pentahydroxyflavone] | stimulated | promoted | increased |
